From patent US20250313575A1, “MACROCYCLES AS LRRK2 INHIBITORS, PHARMACEUTICAL COMPOSITIONS, AND USES THEREOF” (Merck Sharp & Dohme LLC, priority 2022, published 2025)

Molecular target: GST-tagged truncated human mutant G2019S LRRK2 (Homo sapiens (Human), UniProt Q5S007, G2019S)
Test: LRRK2 G2019S Km ATP LanthaScreen assay
Format: biochemical
Settings: G2019S LRRK2, 134 μM ATP (Km ATP), LRRKtide substrate
Method in brief: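 TR-FRET assay with GST-tagged truncated human G2019S LRRK2 (1.25 nM), preincubated with compound 15 min, then reacted with fluorescein-LRRKtide and 134 μM ATP (Km) in Tris pH 8.5 buffer, 90 min, ambient temperature. Tb-anti-phospho-LRRKtide detection, 520/495 nm ratio; IC50 by 4-parameter logistic fit, top concentration 9.99 μM in DMSO, 10 points.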

GST-tagged truncated human mutant G2019S LRRK2, sequence (Q5S007 970-2527 G2019S): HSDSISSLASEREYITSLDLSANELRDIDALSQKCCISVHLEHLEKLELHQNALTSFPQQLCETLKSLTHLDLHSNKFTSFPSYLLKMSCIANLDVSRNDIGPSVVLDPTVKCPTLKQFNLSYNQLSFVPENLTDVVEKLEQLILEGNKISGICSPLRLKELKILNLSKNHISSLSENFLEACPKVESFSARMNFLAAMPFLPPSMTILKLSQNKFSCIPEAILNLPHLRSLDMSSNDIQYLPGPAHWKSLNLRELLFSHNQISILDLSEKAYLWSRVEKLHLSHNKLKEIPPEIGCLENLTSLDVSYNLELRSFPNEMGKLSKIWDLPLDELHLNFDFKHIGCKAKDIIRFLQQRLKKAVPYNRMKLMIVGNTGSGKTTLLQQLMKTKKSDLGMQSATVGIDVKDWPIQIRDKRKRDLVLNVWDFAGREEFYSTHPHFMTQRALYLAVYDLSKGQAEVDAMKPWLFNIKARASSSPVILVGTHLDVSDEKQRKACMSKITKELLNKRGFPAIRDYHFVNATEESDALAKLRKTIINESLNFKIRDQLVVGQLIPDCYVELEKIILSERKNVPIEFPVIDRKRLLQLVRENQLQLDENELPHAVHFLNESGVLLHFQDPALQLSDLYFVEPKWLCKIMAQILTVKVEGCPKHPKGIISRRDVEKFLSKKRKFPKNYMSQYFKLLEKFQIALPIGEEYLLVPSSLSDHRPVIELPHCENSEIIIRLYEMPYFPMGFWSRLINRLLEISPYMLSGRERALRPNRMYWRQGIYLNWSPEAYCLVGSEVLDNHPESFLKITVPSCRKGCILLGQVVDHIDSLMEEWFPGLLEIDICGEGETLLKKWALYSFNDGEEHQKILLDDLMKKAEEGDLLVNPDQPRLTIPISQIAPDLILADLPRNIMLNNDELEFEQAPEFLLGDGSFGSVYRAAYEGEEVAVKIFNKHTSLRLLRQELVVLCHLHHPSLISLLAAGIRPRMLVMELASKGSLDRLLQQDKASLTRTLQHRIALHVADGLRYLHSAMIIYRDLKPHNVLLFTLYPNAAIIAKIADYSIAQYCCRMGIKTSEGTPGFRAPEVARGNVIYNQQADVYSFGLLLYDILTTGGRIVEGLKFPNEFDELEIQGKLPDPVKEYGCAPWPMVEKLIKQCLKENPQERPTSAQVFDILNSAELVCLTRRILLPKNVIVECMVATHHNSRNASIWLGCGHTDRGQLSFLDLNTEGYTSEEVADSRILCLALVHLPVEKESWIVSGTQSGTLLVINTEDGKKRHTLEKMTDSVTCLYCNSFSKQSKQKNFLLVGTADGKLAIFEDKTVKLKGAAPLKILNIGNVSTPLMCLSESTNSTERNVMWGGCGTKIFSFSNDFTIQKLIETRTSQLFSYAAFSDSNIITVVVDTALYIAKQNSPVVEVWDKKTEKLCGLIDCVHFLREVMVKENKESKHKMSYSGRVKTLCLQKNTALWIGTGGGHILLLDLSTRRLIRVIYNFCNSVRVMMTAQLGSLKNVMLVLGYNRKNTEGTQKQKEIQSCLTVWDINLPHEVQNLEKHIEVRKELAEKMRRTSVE

First: Cc1nn(C2CCC2)c2c1OCC1CCCC1Nc1nc(ncc1C(F)(F)F)N2 [Ex-5.5, (10aR,13aR)- or (10aS,13aS)-3-cyclobutyl-1-methyl-8-(trifluoromethyl)-3,4,10a,11,12,13,13a,14-octahydro-10H-5,9-(azeno)cyclopenta[k]pyrazolo[4,3-b][1]oxa[4,6, 10]triazacyclotridecine]
Second: Cc1nn(C2CCC2)c2c1OC[C@@H]1COCC[C@H]1Nc1nc(ncc1C(F)(F)F)N2 [Ex-2.34, (4aR,16aS)- or (4aS,16aR)-12-cyclobutyl-14-methyl-7-(trifluoromethyl)-3,4,4a,5,11,12,16,16a-octahydro-1H-6,10-(azeno)pyrano[4,3-k]pyrazolo[4,3-b][1]oxa[4,6,10]triazacyclotridecine]
The “LRRK2 pIC50” value of the first is higher: 10.06 for the first, 8.00 for the second.

Compared with FC(F)(F)c1cnc2nc1N[C@@H]1COC[C@H]1COc1ccnc(Cl)c1N2 [Ex-15.5, (3aS,16aS)-11-chloro-6-(trifluoromethyl)-3a,4,16,16a-tetrahydro-1H,3H,10H-5,9-(azeno)furo[3,4-k]pyrido[4,3-b][1]oxa[4,6,10]triazacyclotridecine], Cc1nn(C2CCC2)c2c1OCC1CCCC1Nc1nc(ncc1C(F)(F)F)N2 [Ex-5.4, (10aR,13aR)- or (10aS,13aS)-3-cyclobutyl-1-methyl-8-(trifluoromethyl)-3,4,10a,11,12,13,13a,14-octahydro-10H-5,9-(azeno)cyclopenta[k]pyrazolo[4,3-b][1]oxa[4,6,10]triazacyclotridecine] is lower in “LRRK2 pIC50” value: 9.90 for the first, 6.78 for the second.

Compared with Cc1nn(C2CCC2)c2c1OC[C@@H]1CC[C@H]1Nc1cc(ncc1F)N2 [Ex-13.7, (10aR,12aR)-3-cyclobutyl-8-fluoro-1-methyl-3,4,10,10a,11,12,12a,13-octahydro-5,9-(metheno)cyclobuta[k]pyrazolo[4,3-b][1]oxa[4,6,10]triazacyclotridecine], FC(F)(F)c1cnc2nc1NC1CCC1COc1c(C3CCOC3)nn(C3CCC3)c1N2 [Ex-2.65, (10aR,12aR)-3-cyclobutyl-1-((R)-(10aR,12aR)-3-cyclobutyl-1-((S)-(10aS,12aS)-3-cyclobutyl-1-((R)-(10aS,12aS)-3-cyclobutyl-1-((S)-tetrahydrofuran-3-yl)-8-(trifluoromethyl)-3,4,10,10a,11,12,12a,13-octahydro-5,9-(azeno)cyclobuta[k]pyrazolo[4,3-b][1]oxa[4,6,10]triazacyclotridecine] is higher in “LRRK2 pIC50” value: 5.02 for the first, 6.59 for the second.

Cc1nn(C2CC2)c2c1O[C@@H]1CC[C@@H]1CNc1nc(ncc1C(F)(F)F)N2 [Ex-2.85, (11aR,13aR)- or (11aS,13aS)-3-cyclopropyl-1-methyl-8-(trifluoromethyl)-3,4,10,11,11a,12,13,13a-octahydro-5,9-(azeno)cyclobuta[I]pyrazolo[4,3-b][1]oxa[4,6,10]triazacyclotridecine] was tested, and the “LRRK2 pIC50” value was 8.74.

In the case of Cc1nn(C2CCC2)c2c1OC[C@H]1CC[C@H]1Nc1nc(ncc1C(F)(F)F)N2 (single isomer, unassigned) [Ex-2.23, (10aR,12aS)- or (10aS,12aR)-3-cyclobutyl-1-methyl-8-(trifluoromethyl)-3,4,10,10a,11,12,12a,13-octahydro-5,9-(azeno)cyclobuta[k]pyrazolo[4,3-b][1]oxa[4,6,10]triazacyclotridecine], the “LRRK2 pIC50” value is reported as greater than 10.09.
CC(C)n1nc(CO)c2c1Nc1ncc(C(F)(F)F)c(n1)N[C@@H]1COC[C@H]1CO2 [Ex-6.7, ((10aS,13aS)-3-isopropyl-8-(trifluoromethyl)-3,4,10a,11,13a,14-hexahydro-10H,13H-5,9-(azeno)furo[3,4-k]pyrazolo[4,3-b][1]oxa[4,6,10]triazacyclotridecin-1-yl)methanol] was tested, and the “LRRK2 pIC50” value was greater than 10.09.

Same assay, conditions: G2019S LRRK2, 134 μM ATP (Km ATP), LRRKtide substrate; read-out: LRRK2 pIC50 (converted)

Cc1nn(C2CCC2)c2c1OCC[C@@H]1COCCN1c1nc(ncc1C(F)(F)F)N2 (single isomer, unassigned) [Ex-21.3, (R) or (S)-3-cyclobutyl-1-methyl-8-(trifluoromethyl)-3,4,11,12,14,14a,15,16-octahydro-5,9-(azeno)[1,4]oxazino[4,3-j]pyrazolo[4,3-b][1]oxa[4,6,10]triazacyclotridecine] showed an IC50 of 22.9 nM.
